From ChEMBL document CHEMBL4425105, “Discovery of (S)-1-(1-(4-Chloro-3-fluorophenyl)-2-hydroxyethyl)-4-(2-((1-methyl-1H-pyrazol-5-yl)amino)pyrimidin-4-yl)pyridin-2(1H)-one (GDC-0994), an Extracellular Signal-Regulated Kinase 1/2 (ERK1/2) Inhibitor in Early Clinical Development” (J Med Chem, 2016) come the findings set out here.

Data set [1] has as its target Mitogen-activated protein kinase 1 (Homo sapiens, UniProt P28482).
Description: Inhibition of ERK2 (unknown origin)
Data set [2] addresses Mitogen-activated protein kinase 3 (Homo sapiens, UniProt P27361).
Description: Inhibition of ERK1 (unknown origin)
For the next data set, the target named is Cytochrome P450 3A4 (Homo sapiens, UniProt P08684).
Cytochrome P450 3A4, sequence (P08684 whole entry): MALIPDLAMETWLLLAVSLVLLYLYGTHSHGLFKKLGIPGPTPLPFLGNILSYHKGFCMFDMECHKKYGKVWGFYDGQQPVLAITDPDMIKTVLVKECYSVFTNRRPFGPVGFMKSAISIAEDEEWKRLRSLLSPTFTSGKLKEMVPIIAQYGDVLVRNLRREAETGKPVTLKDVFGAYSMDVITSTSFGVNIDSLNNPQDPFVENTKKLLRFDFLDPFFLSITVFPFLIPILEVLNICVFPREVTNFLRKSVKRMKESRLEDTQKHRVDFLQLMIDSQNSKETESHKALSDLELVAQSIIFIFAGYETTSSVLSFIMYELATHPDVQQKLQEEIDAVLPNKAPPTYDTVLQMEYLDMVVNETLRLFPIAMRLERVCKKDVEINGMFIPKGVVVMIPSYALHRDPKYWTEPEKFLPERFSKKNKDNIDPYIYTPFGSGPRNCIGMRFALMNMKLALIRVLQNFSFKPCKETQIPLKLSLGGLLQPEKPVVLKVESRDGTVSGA
Data set [3] can be described thus: Drug metabolism in rat hepatocytes assessed as formation of 3-(4-(1-((S)-1-(4-chloro-3-fluorophenyl)-2-hydroxyethyl)-2-oxo-1,2-dihydropyridin-4-yl)pyrimidin-2-ylamino)-5-hydroxypentanoic acid measured after 3 hrs by LC-MS/MS analysis. Format: ADME, cell-based, Hepatocyte.
Data set [4] can be described thus: Drug metabolism in dog hepatocytes assessed as formation of 3-(4-(1-((S)-1-(4-chloro-3-fluorophenyl)-2-hydroxyethyl)-2-oxo-1,2-dihydropyridin-4-yl)pyrimidin-2-ylamino)-5-hydroxypentanoic acid measured after 3 hrs by LC-MS/MS analysis. The class given is ADME, cell-based, Canis lupus familiaris, Hepatocyte.
Data set [5] in a line: Drug metabolism in human hepatocytes assessed as formation of 3-(4-(1-((S)-1-(4-chloro-3-fluorophenyl)-2-hydroxyethyl)-2-oxo-1,2-dihydropyridin-4-yl)pyrimidin-2-ylamino)-5-hydroxypentanoic acid measured after 3 hrs by LC-MS/MS analysis. Format: ADME, cell-based, Hepatocyte.
For data set [6], the system named is Mus musculus. The data set is described as follows: T>IC50 for inhibition of p90RSK phosphorylation in CD-1 mouse at 10 mg/kg, po.
Data set [7] is described as follows: Fraction unbound in mouse plasma. The class given is ADME, cell-free.
The nature of data set [8]: Drug metabolism in cynomolgus monkey hepatocytes assessed as formation of 3-(4-(1-((S)-1-(4-chloro-3-fluorophenyl)-2-hydroxyethyl)-2-oxo-1,2-dihydropyridin-4-yl)pyrimidin-2-ylamino)-5-hydroxypentanoic acid measured after 3 hrs by LC/MS analysis. Format: ADME, cell-based, Macaca fascicularis, Hepatocyte.
For data set [9], the species on record is Mus musculus.
Description: In vivo inhibition of p90RSK phosphorylation in mouse xenografted with human HTC116 cells assessed as total plasma concentration required for efficacy
Data set [10] in a line: Drug metabolism in mouse hepatocytes assessed as formation of 3-(4-(1-((S)-1-(4-chloro-3-fluorophenyl)-2-hydroxyethyl)-2-oxo-1,2-dihydropyridin-4-yl)pyrimidin-2-ylamino)-5-hydroxypentanoic acid measured after 3 hrs by LC-MS/MS analysis. The class given is ADME, cell-based, Hepatocyte.
A short description of data set [11]: Permeability from apical to basolateral side of MDCK cells. The class given is ADME, cell-based, Canis lupus familiaris. The settings on record: dog, read-out: permeability.
The test system of the next data set is Cytochrome P450. The data set is described as follows: Inhibition of CYP450 (unknown origin). The note with it: human. Format: ADME, protein assay.
Data set [12] can be described thus: Drug level in dog hepatocytes treated with (S)-1-(1-(4-chloro-3-fluorophenyl)-2-hydroxyethyl)-4-(2-(tetrahydro-2H-pyran-4-ylamino)pyrimidin-4-yl)pyridin-2(1H)-one measured after 3 hrs by LC/MS analysis. The class given is ADME, cell-based, Canis lupus familiaris, Hepatocyte.
Data set [13] in a line: Drug level in human hepatocytes treated with (S)-1-(1-(4-chloro-3-fluorophenyl)-2-hydroxyethyl)-4-(2-(tetrahydro-2H-pyran-4-ylamino)pyrimidin-4-yl)pyridin-2(1H)-one measured after 3 hrs by LC/MS analysis. The class given is ADME, cell-based, Hepatocyte.
Data set [14] in a line: Drug level in rat hepatocytes treated with (S)-1-(1-(4-chloro-3-fluorophenyl)-2-hydroxyethyl)-4-(2-(tetrahydro-2H-pyran-4-ylamino)pyrimidin-4-yl)pyridin-2(1H)-one measured after 3 hrs by LC/MS analysis. Format: ADME, cell-based, Hepatocyte.
The nature of data set [15]: Drug level in cynomolgus monkey hepatocytes treated with (S)-1-(1-(4-chloro-3-fluorophenyl)-2-hydroxyethyl)-4-(2-(tetrahydro-2H-pyran-4-ylamino)pyrimidin-4-yl)pyridin-2(1H)-one measured after 3 hrs by LC/MS analysis. The class given is ADME, cell-based, Macaca fascicularis, Hepatocyte.
Data set [16] in a line: Drug level in mouse hepatocytes treated with (S)-1-(1-(4-chloro-3-fluorophenyl)-2-hydroxyethyl)-4-(2-(tetrahydro-2H-pyran-4-ylamino)pyrimidin-4-yl)pyridin-2(1H)-one measured after 3 hrs by LC/MS analysis. The class given is ADME, cell-based, Hepatocyte.
The next data set is described as follows: in vivo. The note with it: CD-1, mouse, po.
Another data set deals with HCT-116. Kind of data set: Antitumor activity against human HCT116 cells xenografted in mouse assessed as tumor growth inhibition at 7.5 mg/kg, po qd measured after 21 days relative to vehicle-control. The class given is functional. The note with it: HCT-116, po, 504 h. Background: A xenograft is tissue or cells of one species grown in another, often human tumour cells in immunodeficient mice.

Mitogen-activated protein kinase 3, sequence (P27361 whole entry): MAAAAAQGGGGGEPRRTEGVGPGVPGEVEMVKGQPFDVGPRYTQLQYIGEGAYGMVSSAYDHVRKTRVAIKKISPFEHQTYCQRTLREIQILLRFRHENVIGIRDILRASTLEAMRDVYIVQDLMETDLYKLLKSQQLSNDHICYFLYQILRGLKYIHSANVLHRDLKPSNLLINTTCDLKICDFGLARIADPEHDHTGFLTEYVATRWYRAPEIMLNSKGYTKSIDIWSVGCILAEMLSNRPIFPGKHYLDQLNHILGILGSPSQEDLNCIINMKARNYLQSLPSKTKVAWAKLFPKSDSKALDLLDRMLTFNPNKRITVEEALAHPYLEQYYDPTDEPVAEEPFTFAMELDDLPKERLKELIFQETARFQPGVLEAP
Mitogen-activated protein kinase 1, sequence (P28482 whole entry): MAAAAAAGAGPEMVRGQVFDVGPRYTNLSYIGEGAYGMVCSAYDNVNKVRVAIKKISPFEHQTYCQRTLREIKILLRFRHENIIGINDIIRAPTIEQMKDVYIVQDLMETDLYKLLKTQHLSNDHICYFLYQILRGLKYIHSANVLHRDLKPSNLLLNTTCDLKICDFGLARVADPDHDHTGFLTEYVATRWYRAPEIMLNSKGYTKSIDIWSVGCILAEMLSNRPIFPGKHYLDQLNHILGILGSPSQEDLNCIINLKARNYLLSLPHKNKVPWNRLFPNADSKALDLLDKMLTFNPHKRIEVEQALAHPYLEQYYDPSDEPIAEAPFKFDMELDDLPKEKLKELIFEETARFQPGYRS
Description for Cytochrome P450 3A4: Inhibition of CYP3A4 (unknown origin)
Description for in vivo: Oral bioavailability in CD-1 mouse

By IC50 is commonly meant the concentration needed to halve the response being measured. Turning to `Cn1ccc(Nc2nccc(-c3ccn([C@H](CO)c4ccc(Cl)c(F)c4)c(=O)c3)n2)n1`, the IC50 in data set [1] stood at 37 nM; in data set [2] it was 85 nM.
With `Cc1cc(Nc2nccc(-c3ccn([C@H](CO)c4ccc(Cl)c(F)c4)c(=O)c3)n2)n(C)n1`, in [2], the IC50 was 20 nM.
Consider `Cc1cc(Nc2nccc(-c3ccn([C@H](CO)c4ccc(Cl)c(F)c4)c(=O)c3)n2)ccn1`, for which the IC50 on Cytochrome P450 3A4 stood at 340 nM; in data set [1], 0.94 nM; in [2], 3.9 nM.
Consider `CCn1nccc1Nc1nccc(-c2ccn([C@H](CO)c3ccc(Cl)c(F)c3)c(=O)c2)n1`, for which the results for the IC50 in data set [1] and in data set [2] were 16 nM and 26 nM, respectively.
For orientation: fraction unbound means the share of the substance not bound to proteins or other matrix. As for `O=c1cc(-c2ccnc(NC3CCOCC3)n2)ccn1[C@H](CO)c1ccc(Cl)c(F)c1`, the Drug metabolism result in [3], in data set [4], in data set [5], in data set [8] and in data set [10] was “Metabolite_Detected” in each case. The same compound returned a Time in the data set with Mus musculus [6] of 8 h. This compound registered an unbound share (fraction unbound) in data set [7] of 0.058. Further, in the data set listed under Mus musculus [9], the Cp amounted to 200 nM. In addition, in data set [11], the Papp A→B was found to be 3.9 ×10⁻⁶ cm/s.
With `Cc1n[nH]c(C)c1Nc1nccc(-c2ccn([C@H](CO)c3ccc(Cl)c(F)c3)c(=O)c2)n1`, the “inhibition (INH)” value in the data set on Cytochrome P450 is “Not Active”. For the same compound, the IC50 in data set [1] stood at 240 nM; in [2], 510 nM.
The like results for `Cn1cc(Nc2nccc(-c3ccn([C@H](CO)c4ccc(Cl)c(F)c4)c(=O)c3)n2)c(C(F)(F)F)n1` were, in that order, “Not Active”, 290 nM and 550 nM.
As to `O=C(O)CC(CCO)Nc1nccc(-c2ccn([C@H](CO)c3ccc(Cl)c(F)c3)c(=O)c2)n1` (some centres not stated), the Drug metabolism entry in data set [12], in data set [13], in [14], in data set [15] and in data set [16] was “Metabolite_Detected” in each case.
For `Cc1n[nH]cc1Nc1nccc(-c2ccn([C@H](CO)c3ccc(Cl)c(F)c3)c(=O)c2)n1`, the “inhibition (INH)” value with Cytochrome P450 is given as “Not Active”. The results for the IC50 in data set [1] and in data set [2] were 0.9 nM and 3.8 nM, respectively.
By bioavailability is commonly meant the share of a dose that reaches the circulation, judged against a reference dose that is usually intravenous. With `Cc1nn(C)cc1Nc1nccc(-c2ccn([C@H](CO)c3ccc(Cl)c(F)c3)c(=O)c2)n1`, in the data set with Cytochrome P450, the “inhibition (INH)” value is reported as “Not Active”. The same compound gave a bioavailability in the data set “in vivo” of 95%. Further, inhibition in data set [2] was half-maximal at 13 nM (IC50).
As for `Cn1nc(C(F)(F)F)cc1Nc1nccc(-c2ccn([C@H](CO)c3ccc(Cl)c(F)c3)c(=O)c2)n1`, the IC50 in data set [1] came out at 52 nM; in [2], 74 nM.
Regarding `CCc1nn(C)cc1Nc1nccc(-c2ccn([C@H](CO)c3ccc(Cl)c(F)c3)c(=O)c2)n1`, the “inhibition (INH)” value with Cytochrome P450 is “Not Active”. In addition, the IC50 in [1] is 23 nM; in data set [2], 43 nM.
The like results for `CC(C)n1cc(Nc2nccc(-c3ccn([C@H](CO)c4ccc(Cl)c(F)c4)c(=O)c3)n2)cn1` were, in that order, “Not Active”, 10 nM and 19 nM.
For the compound `CCn1cc(Nc2nccc(-c3ccn([C@H](CO)c4ccc(Cl)c(F)c4)c(=O)c3)n2)c(C)n1`, in the data set on Cytochrome P450, the “inhibition (INH)” value is reported as “Not Active”. The IC50 in data set [2] came to 18 nM.
Consider `CCn1cc(Nc2nccc(-c3ccn([C@H](CO)c4ccc(Cl)c(F)c4)c(=O)c3)n2)cn1`, for which the “inhibition (INH)” value with Cytochrome P450 is reported as “Not Active”. Besides, the IC50 was 1.8 nM in data set [1] and 5 nM in [2].
On to `Cn1cc(Nc2nccc(-c3ccn([C@H](CO)c4ccc(Cl)c(F)c4)c(=O)c3)n2)cn1`, for which, in the data set on Cytochrome P450, the “inhibition (INH)” value is reported as “Not Active”. The IC50 in data set [1] stood at 4.1 nM; in data set [2], 7.9 nM.
As for `CCc1cc(Nc2nccc(-c3ccn([C@H](CO)c4ccc(Cl)c(F)c4)c(=O)c3)n2)n(C)n1`, the figures for the IC50 in [1] and in [2] were 17 nM and 27 nM, respectively.
The corresponding values for `O=c1cc(-c2ccnc(Nc3cc[nH]n3)n2)ccn1[C@H](CO)c1ccc(Cl)c(F)c1` are 5650 nM and 9610 nM.
The corresponding values for `CCn1nc(C)cc1Nc1nccc(-c2ccn([C@H](CO)c3ccc(Cl)c(F)c3)c(=O)c2)n1` are 89 nM and 150 nM.
Turning to `Cc1cnn(C)c1Nc1nccc(-c2ccn([C@H](CO)c3ccc(Cl)c(F)c3)c(=O)c2)n1`, the values for the IC50 in data set [1] and in data set [2] were 490 nM and 1070 nM, respectively.
In general, inhibition in vivo refers to the relative decrease from the control value, in per cent. As to `O=C(c1ccc(F)c(F)c1Nc1ccc(I)cc1F)N1CC(O)([C@@H]2CCCCN2)C1` [COBIMETINIB], the inhibition in vivo at 7.5 mg/kg in the data set with HCT-116 amounted to 58%.
Turning to `Cc1c(Nc2nccc(-c3ccn([C@H](CO)c4ccc(Cl)c(F)c4)c(=O)c3)n2)cnn1C`, the “inhibition (INH)” value in the data set on Cytochrome P450 was “Not Active”. Moreover, the IC50 in data set [1] came out at 29 nM; in data set [2] it was 62 nM.
